Results on ten molecules are retold here after patent US8563714B2, “Bridged spiro [2.4] heptane derivatives as ALX receptor and/or FPRL2 agonists” (Actelion Pharmaceuticals Ltd., priority 2009, dated 2013).

pEC50: −log10 of the molar value.

One test addresses T1, human ALX receptor (Homo sapiens, UniProt P25090).
T1 construct: expressed in transfected cells; host or cells: HEK293 (HEK293-hALXR-Gα16)
T1 sequence (P25090 1-351): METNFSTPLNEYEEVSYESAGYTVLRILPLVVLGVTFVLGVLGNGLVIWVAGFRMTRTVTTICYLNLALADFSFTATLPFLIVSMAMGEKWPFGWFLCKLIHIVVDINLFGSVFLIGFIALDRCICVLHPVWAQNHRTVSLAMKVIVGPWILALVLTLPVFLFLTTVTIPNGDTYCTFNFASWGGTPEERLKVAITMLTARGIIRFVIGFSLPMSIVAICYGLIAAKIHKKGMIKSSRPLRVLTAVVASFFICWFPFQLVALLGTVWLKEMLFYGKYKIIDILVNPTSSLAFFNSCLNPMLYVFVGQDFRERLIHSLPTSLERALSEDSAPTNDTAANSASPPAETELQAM
Briefly: Intracellular calcium measurements (FLIPR), agonistic activity in HEK293-hALXR-Gα16 cells. In kind it is cell-based. The settings on record: Fluo-4 calcium FLIPR, normalized to WKYMVm 10 nM. A digest of the protocol:
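Agonist-induced calcium flux was recorded by FLIPR (488/540 nm) in HEK293-hALXR-Gα16 cells pre-loaded with Fluo-4 AM (1 μM, 60 min, 37°C). Peak signal above baseline, after subtracting buffer addition, was expressed relative to WKYMVm at 10 nM final.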
For orientation: A change in cytosolic calcium serves as a functional read-out for many receptors and channels.

For the next test, the target named is T2, human FPRL2 (Homo sapiens, UniProt P25089).
T2 construct: expressed in transfected cells; host or cells: HEK293 (HEK293-hFPRL2-Gα16)
T2 sequence (P25089 1-353): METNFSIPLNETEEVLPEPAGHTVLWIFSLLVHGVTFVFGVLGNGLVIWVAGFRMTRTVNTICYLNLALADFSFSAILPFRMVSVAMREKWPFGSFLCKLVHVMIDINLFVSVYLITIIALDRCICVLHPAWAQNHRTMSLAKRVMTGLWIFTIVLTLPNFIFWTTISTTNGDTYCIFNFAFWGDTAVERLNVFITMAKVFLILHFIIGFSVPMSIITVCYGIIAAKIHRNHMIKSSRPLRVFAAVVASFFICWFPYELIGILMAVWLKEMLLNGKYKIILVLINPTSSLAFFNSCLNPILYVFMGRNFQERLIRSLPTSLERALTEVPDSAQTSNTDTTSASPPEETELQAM
Briefly: Intracellular calcium measurements (FLIPR), agonistic activity in HEK293-hFPRL2-Gα16 cells. In kind it is cell-based. The settings on record: Fluo-4 calcium FLIPR, normalized to GLY14-Humanin 100 nM. A digest of the protocol:
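Peak values after baseline subtraction are expressed relative to 100 nM Gly14-Humanin; compounds diluted in assay buffer from 10 mM DMSO stocks.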

A word on the pEC50: it is −log10 of the EC50, conventionally taken in molar units. Regarding `CC(C)(C)OC(=O)CCCNC(=O)[C@H]1[C@H](C(=O)Nc2ccc(Br)cc2)[C@@H]2C=C[C@H]1C21CC1` (racemic) [Example 89, (5R*)—N^5-(4-Bromophenyl)-(6R*)—N^6-(3-tert-butoxycarbonyl-propyl)-(4S*,7R*)-[4,7-ethenylene-spiro[2.4]heptane]-5,6-dicarboxamide], the pEC50 on human ALX receptor is 6.72; at human FPRL2, 5.61.

Take `O=C(NCCCCN1CCCC1)[C@H]1[C@H](C(=O)Nc2nc3ccc(Cl)cc3s2)[C@@H]2C=C[C@H]1C21CC1` (racemic) [Example 154, (5R*)—N^5-(6-Chloro-benzothiazol-2-yl)-(6R*)—N^6-(4-pyrrolidin-1-yl-butyl)-(4S*,7R*)-[4,7-ethenylene-spiro[2.4]heptane]-5,6-dicarboxamide]: the pEC50 at human ALX receptor was 5.00; at human FPRL2 it was 6.67.

Consider `CC(C)(C)OC(=O)NCCCNC(=O)[C@H]1[C@H](C(=O)Nc2ccc(Br)cc2)[C@@H]2C=C[C@H]1C21CC1` (racemic) [Example 57, (5R*)—N^5-(4-Bromophenyl)-(6R*)—N^6-(3-(N-tert-butoxycarbonyl-amino)-propyl)-(4S*,7R*)-[4,7-ethenylene-spiro[2.4]heptane]-5,6-dicarboxamide], for which the pEC50 was 7.77 on human ALX receptor and 5.78 on human FPRL2.

Consider `O=C(NCCCCN1CCCC1)[C@H]1[C@H](C(=O)NCc2ccc(Br)c(F)c2)[C@@H]2C=C[C@H]1C21CC1` [Example 321, (5R)—N^5-(4-Bromo-3-fluorophenyl-methyl)-(6R)—N^6-(4-pyrrolidino-butyl)-(4S,7R)-[4,7-ethenylene-spiro[2.4]heptane]-5,6-dicarboxamide], for which the pEC50 was 6.93 on human ALX receptor and 7.82 on human FPRL2.

Consider `O=C(NCCCCN1CCCC1)[C@H]1[C@H](C(=O)NCc2ccc(Br)cc2F)[C@@H]2C=C[C@H]1C21CC1` (racemic) [Example 203, (5R*)—N^5-(2-Fluoro-4-bromophenyl-methyl)-(6R*)—N^6-(4-pyrrolidin-1-yl-butyl)-(4S*,7R*)-[4,7-ethenylene-spiro[2.4]heptane]-5,6-dicarboxamide], for which the pEC50 was 7.62 on human ALX receptor and 6.70 on human FPRL2.

For `COc1ccc(NC(=O)[C@H]2[C@H](C(=O)NCCC(=O)O)[C@H]3C=C[C@@H]2C32CC2)cc1` [Example 287, (5R)—N^5-(4-Methoxyphenyl)-(6R)—N^6-(3-hydroxyl-3-oxopropyl)-(4S,7R)-[4,7-ethenylene-spiro[2.4]heptane]-5,6-dicarboxamide], the pEC50 on human ALX receptor is 6.29; on human FPRL2, < 4.60.

On to `Cc1nc(NC(=O)[C@H]2[C@H](C(=O)NCCCCN3CCCC3)[C@H]3C=C[C@@H]2C32CC2)sc1C` (racemic) [Example 369, (5R*)—N^5-(4,5-Dimethyl-thiazol-2-yl)-(6R*)—N^6-(4-pyrrolidino-butyl)-(4S*,7R*)-[4,7-ethenylene-spiro[2.4]heptane]-5,6-dicarboxamide], for which the pEC50 at human ALX receptor was < 4.60; at human FPRL2, 6.69.

For the molecule `NCC1CCC(NC(=O)C2C(C(=O)Nc3ccc(Br)cc3)C3C=CC2C32CC2)CC1` (single isomer, unassigned) [Example 421], the pEC50 on human ALX receptor is 7.89; at human FPRL2 it was 5.77.

On to `CC(C)CNC(=O)C1C(C(=O)Nc2ncc(Br)s2)C2C=CC1C21CC1` (stereo not drawn) [Example 245, (5R*)—N^5-(5-Bromo-thiazol-2-yl)-(6R*)—N^6-(isobutyl)-(4S*,7R*)-[4,7-ethenylene-spiro[2.4]heptane]-5,6-dicarboxamide], for which the pEC50 on human ALX receptor is 8.41; at human FPRL2, 5.08.

In the case of `CC(CO)NC(=O)C1C(C(=O)Nc2ccc(Br)cc2)C2C=CC1C21CC1` (mixture of isomers) [Example 28, (5R*)—N^5-(4-Bromophenyl)-(6R*)—N^6-(1-hydroxy-prop-2-yl)-(4S*,7R*)-[4,7-ethenylene-spiro[2.4]heptane]-5,6-dicarboxamide], the figures for the pEC50 at human ALX receptor and on human FPRL2 were 8.35 and < 4.60, respectively.
